Laboratory results published in paper PMC11864979, “First-in-class ultralong-target-residence-time p38α inhibitors as a mitosis-targeted therapy for colorectal cancer” (Nature Cancer, 2025).
Like-named read-outs stand apart in the source and are kept apart here.

Tests used:
Assay in all cases: selectivity profiling in a panel of 340 wild-type kinases (Reaction Biology Europe)
Type in all cases: binding
340 wild-type kinases [1] = biological target: T1, 340 wild-type kinases (Homo sapiens, UniProt Q9BWU1)
T1 construct: purchased Reaction Biology Europe

340 wild-type kinases [2] = biological target: T2, 340 wild-type kinases (Homo sapiens, UniProt P49674)
T2 construct: purchased Reaction Biology Europe

340 wild-type kinases [3] = biological target: T3, 340 wild-type kinases (Homo sapiens, UniProt P05129)
T3 construct: purchased Reaction Biology Europe

340 wild-type kinases [4] = biological target: T4, 340 wild-type kinases (Homo sapiens, UniProt P19784)
T4 construct: purchased Reaction Biology Europe

340 wild-type kinases [5] = biological target: T5, 340 wild-type kinases (Homo sapiens, UniProt Q15131)
T5 construct: purchased Reaction Biology Europe

340 wild-type kinases [6] = biological target: T6, 340 wild-type kinases (Homo sapiens, UniProt Q9NYV4)
T6 construct: purchased Reaction Biology Europe

340 wild-type kinases [7] = biological target: T7, 340 wild-type kinases (Homo sapiens, UniProt Q16584)
T7 construct: purchased Reaction Biology Europe

340 wild-type kinases [8] = biological target: T8, 340 wild-type kinases (Homo sapiens, UniProt Q00534)
T8 construct: purchased Reaction Biology Europe

340 wild-type kinases [9] = biological target: T9, 340 wild-type kinases (Homo sapiens, UniProt Q9UM73)
T9 construct: purchased Reaction Biology Europe

340 wild-type kinases [10] = biological target: T10, 340 wild-type kinases (Homo sapiens, UniProt Q9HCP0)
T10 construct: purchased Reaction Biology Europe

340 wild-type kinases [11] = biological target: T11, 340 wild-type kinases (Homo sapiens, UniProt P30291)
T11 construct: purchased Reaction Biology Europe

340 wild-type kinases [12] = biological target: T12, 340 wild-type kinases (Homo sapiens, UniProt P45985)
T12 construct: purchased Reaction Biology Europe
T12 sequence (P45985 1-399): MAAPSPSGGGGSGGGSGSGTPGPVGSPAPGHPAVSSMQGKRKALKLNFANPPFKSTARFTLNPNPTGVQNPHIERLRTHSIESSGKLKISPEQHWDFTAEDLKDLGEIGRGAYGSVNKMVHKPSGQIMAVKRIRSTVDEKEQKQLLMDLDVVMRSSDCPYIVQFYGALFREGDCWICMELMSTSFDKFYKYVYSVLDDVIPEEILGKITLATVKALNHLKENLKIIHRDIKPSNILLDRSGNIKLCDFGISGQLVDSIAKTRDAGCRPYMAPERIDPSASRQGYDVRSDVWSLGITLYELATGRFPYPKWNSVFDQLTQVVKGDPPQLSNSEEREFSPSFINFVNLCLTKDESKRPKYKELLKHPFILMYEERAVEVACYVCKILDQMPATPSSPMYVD

340 wild-type kinases [13] = biological target: T13, 340 wild-type kinases (Homo sapiens, UniProt Q9BQI3)
T13 construct: purchased Reaction Biology Europe

340 wild-type kinases [14] = biological target: T14, 340 wild-type kinases (Homo sapiens, UniProt Q9Y3S1)
T14 construct: purchased Reaction Biology Europe

340 wild-type kinases [15] = biological target: T15, 340 wild-type kinases (Homo sapiens, UniProt P23443)
T15 construct: purchased Reaction Biology Europe
T15 sequence (P23443 whole entry): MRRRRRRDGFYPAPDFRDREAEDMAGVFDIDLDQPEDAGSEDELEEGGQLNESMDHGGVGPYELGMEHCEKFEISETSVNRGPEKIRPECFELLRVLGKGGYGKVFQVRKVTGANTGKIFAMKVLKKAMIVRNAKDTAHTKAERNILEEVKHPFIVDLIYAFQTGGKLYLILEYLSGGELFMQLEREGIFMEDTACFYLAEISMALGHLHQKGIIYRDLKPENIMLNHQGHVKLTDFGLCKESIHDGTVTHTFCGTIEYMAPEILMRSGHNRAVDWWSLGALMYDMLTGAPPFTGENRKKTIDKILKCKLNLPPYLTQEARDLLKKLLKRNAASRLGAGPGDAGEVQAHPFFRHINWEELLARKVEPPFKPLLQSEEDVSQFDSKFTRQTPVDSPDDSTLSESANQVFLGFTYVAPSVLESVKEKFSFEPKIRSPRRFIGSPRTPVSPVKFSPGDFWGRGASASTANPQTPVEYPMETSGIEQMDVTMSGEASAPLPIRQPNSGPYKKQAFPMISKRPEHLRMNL

T1 sequence (Q9BWU1 whole entry): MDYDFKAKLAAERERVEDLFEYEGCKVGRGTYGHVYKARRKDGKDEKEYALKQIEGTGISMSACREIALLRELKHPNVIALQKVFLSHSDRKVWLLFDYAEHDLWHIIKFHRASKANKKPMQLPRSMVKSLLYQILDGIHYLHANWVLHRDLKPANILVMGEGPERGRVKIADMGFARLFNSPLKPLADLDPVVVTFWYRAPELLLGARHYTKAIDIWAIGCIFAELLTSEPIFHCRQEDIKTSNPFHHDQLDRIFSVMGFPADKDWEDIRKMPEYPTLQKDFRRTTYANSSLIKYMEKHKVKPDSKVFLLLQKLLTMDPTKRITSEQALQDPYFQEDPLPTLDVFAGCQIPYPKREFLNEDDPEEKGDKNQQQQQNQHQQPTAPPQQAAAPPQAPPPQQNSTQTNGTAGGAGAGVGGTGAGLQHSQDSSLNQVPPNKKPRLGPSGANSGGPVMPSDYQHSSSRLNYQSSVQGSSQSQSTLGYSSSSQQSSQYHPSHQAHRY
T2 sequence (P49674 whole entry): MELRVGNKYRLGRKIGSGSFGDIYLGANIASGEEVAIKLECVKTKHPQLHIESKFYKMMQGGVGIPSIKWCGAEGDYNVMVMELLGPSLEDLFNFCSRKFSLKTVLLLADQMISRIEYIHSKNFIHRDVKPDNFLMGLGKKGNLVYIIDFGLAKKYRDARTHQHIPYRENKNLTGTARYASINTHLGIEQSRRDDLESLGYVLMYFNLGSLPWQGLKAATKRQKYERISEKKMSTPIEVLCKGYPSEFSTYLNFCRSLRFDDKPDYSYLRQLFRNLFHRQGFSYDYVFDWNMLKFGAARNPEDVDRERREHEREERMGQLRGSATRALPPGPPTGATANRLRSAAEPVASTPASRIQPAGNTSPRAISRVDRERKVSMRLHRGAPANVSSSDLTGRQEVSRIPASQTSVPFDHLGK
T4 sequence (P19784 whole entry): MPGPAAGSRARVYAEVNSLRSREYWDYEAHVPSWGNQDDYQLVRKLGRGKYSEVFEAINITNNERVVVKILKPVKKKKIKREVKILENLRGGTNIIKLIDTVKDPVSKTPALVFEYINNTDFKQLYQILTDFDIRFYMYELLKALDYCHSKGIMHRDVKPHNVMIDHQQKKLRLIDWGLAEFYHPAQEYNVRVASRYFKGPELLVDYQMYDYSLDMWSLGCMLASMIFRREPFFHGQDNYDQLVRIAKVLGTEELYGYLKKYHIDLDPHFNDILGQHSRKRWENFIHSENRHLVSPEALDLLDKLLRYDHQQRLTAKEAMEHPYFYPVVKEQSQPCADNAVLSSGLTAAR
T5 sequence (Q15131 whole entry): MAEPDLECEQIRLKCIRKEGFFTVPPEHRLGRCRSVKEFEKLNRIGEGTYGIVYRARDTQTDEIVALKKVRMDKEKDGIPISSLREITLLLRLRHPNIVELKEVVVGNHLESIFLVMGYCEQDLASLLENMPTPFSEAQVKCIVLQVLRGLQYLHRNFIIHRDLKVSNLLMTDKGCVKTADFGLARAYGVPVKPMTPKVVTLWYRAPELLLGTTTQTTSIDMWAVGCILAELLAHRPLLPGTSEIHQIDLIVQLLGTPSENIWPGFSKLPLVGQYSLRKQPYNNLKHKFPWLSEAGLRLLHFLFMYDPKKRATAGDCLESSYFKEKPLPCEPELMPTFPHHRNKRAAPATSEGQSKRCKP
T13 sequence (Q9BQI3 whole entry): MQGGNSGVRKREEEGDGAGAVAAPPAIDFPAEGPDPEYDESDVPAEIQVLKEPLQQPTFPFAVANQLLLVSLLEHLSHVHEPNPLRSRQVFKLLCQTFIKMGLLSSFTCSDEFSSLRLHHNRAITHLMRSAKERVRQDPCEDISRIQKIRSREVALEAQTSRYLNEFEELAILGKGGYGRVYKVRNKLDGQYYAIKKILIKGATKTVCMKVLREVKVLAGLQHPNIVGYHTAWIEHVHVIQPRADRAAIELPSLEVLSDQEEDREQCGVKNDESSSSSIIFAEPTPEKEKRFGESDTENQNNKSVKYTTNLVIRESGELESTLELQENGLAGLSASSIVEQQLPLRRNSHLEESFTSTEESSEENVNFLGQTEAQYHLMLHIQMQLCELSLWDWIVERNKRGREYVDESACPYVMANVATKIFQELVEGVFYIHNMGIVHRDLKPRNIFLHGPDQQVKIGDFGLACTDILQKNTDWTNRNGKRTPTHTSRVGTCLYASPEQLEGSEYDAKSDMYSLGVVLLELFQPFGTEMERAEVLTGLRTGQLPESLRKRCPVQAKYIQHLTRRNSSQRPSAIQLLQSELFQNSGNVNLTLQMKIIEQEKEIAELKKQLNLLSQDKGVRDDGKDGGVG
T8 sequence (Q00534 whole entry): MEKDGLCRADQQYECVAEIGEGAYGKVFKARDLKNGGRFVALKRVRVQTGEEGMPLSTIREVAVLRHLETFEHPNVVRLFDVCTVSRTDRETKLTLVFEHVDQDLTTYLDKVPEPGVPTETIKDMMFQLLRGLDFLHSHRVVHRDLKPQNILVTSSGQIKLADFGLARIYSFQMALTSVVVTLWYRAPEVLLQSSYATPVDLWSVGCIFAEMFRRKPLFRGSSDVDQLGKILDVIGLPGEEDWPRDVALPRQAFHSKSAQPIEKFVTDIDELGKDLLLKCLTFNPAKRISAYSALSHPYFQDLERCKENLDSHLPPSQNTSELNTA
T7 sequence (Q16584 whole entry): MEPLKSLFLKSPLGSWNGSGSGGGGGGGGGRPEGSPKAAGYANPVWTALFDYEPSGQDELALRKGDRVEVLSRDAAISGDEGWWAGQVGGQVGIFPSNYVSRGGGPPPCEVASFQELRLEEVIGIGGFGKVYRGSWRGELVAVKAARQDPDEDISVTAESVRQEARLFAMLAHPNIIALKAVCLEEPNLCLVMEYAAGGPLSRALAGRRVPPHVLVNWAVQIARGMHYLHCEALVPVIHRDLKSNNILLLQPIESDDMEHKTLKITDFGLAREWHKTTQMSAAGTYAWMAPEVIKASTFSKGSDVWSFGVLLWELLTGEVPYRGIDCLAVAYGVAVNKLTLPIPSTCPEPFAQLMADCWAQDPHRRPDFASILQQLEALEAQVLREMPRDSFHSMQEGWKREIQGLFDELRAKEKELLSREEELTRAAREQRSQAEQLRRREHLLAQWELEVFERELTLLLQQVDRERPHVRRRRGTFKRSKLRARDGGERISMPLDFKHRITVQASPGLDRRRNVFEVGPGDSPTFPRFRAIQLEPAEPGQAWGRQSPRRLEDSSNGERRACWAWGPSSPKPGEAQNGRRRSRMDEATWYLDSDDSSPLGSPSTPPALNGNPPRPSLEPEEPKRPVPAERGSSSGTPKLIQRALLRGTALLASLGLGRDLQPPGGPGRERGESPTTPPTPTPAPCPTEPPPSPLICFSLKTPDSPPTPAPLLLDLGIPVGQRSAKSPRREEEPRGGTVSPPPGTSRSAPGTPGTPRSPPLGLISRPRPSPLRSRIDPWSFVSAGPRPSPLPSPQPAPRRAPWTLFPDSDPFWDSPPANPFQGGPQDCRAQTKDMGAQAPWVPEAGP

CNC(=O)c1ccc2c(c1)C(=O)c1ccc(Nc3ccc(F)c(NC(=O)C4CC4)c3)cc1CC2 [Compound 2015]
remaining activity at 0.2 µM (340 wild-type kinases [1]; 0.2 µM 2015, read-out: CDK19/CycC residual activity): 99.8%
remaining activity at 1 µM (340 wild-type kinases [1]; 1 µM 2015, read-out: CDK19/CycC residual activity): 96.4%
remaining activity at 0.2 µM (340 wild-type kinases [1]; CDK19/CycC, 0.2 µM, read-out: residual activity): 99.8%
remaining activity at 1 µM (340 wild-type kinases [1]; CDK19/CycC, 1 µM, read-out: residual activity): 96.4%
remaining activity at 0.2 µM (340 wild-type kinases [2]; 0.2 µM 2015, read-out: CK1epsilon residual activity): 114%
remaining activity at 1 µM (340 wild-type kinases [2]; 1 µM 2015, read-out: CK1epsilon residual activity): 111%
remaining activity at 0.2 µM (340 wild-type kinases [2]; CK1epsilon, 0.2 µM, read-out: residual activity): 114%
remaining activity at 1 µM (340 wild-type kinases [2]; CK1epsilon, 1 µM, read-out: residual activity): 111%
remaining activity at 0.2 µM (340 wild-type kinases [3]; 0.2 µM 2015, read-out: PKCgamma residual activity): 109%
remaining activity at 1 µM (340 wild-type kinases [3]; 1 µM 2015, read-out: PKCgamma residual activity): 86.6%
remaining activity at 0.2 µM (340 wild-type kinases [3]; PKCgamma, 0.2 µM, read-out: residual activity): 109%
remaining activity at 1 µM (340 wild-type kinases [3]; PKCgamma, 1 µM, read-out: residual activity): 86.6%
remaining activity at 0.2 µM (340 wild-type kinases [4]; 0.2 µM 2015, read-out: CK2alpha2 residual activity): 102%
remaining activity at 1 µM (340 wild-type kinases [4]; 1 µM 2015, read-out: CK2alpha2 residual activity): 97.2%
remaining activity at 0.2 µM (340 wild-type kinases [4]; CK2alpha2, 0.2 µM, read-out: residual activity): 102%
remaining activity at 1 µM (340 wild-type kinases [4]; CK2alpha2, 1 µM, read-out: residual activity): 97.2%
remaining activity at 0.2 µM (340 wild-type kinases [5]; 0.2 µM 2015, read-out: CDK10/CycQ residual activity): 108%
remaining activity at 1 µM (340 wild-type kinases [5]; 1 µM 2015, read-out: CDK10/CycQ residual activity): 97.1%
remaining activity at 0.2 µM (340 wild-type kinases [5]; CDK10/CycQ, 0.2 µM, read-out: residual activity): 108%
remaining activity at 1 µM (340 wild-type kinases [5]; CDK10/CycQ, 1 µM, read-out: residual activity): 97.1%
remaining activity at 0.2 µM (340 wild-type kinases [6]; 0.2 µM 2015, read-out: CDK12/CycK residual activity): 112%
remaining activity at 1 µM (340 wild-type kinases [6]; 1 µM 2015, read-out: CDK12/CycK residual activity): 103%
remaining activity at 0.2 µM (340 wild-type kinases [6]; CDK12/CycK, 0.2 µM, read-out: residual activity): 112%
remaining activity at 1 µM (340 wild-type kinases [6]; CDK12/CycK, 1 µM, read-out: residual activity): 103%
remaining activity at 0.2 µM (340 wild-type kinases [7]; 0.2 µM 2015, read-out: MAP3K11 residual activity): 100%
remaining activity at 1 µM (340 wild-type kinases [7]; 1 µM 2015, read-out: MAP3K11 residual activity): 93.8%
remaining activity at 0.2 µM (340 wild-type kinases [7]; MAP3K11, 0.2 µM, read-out: residual activity): 100%
remaining activity at 1 µM (340 wild-type kinases [7]; MAP3K11, 1 µM, read-out: residual activity): 93.8%
remaining activity at 0.2 µM (340 wild-type kinases [8]; 0.2 µM 2015, read-out: CDK6/CycD1 residual activity): 97.6%
remaining activity at 0.2 µM (340 wild-type kinases [8]; 0.2 µM 2015, read-out: CDK6/CycD2 residual activity): 88.8%
remaining activity at 0.2 µM (340 wild-type kinases [8]; 0.2 µM 2015, read-out: CDK6/CycD3 residual activity): 93.3%
remaining activity at 1 µM (340 wild-type kinases [8]; 1 µM 2015, read-out: CDK6/CycD1 residual activity): 93.4%
remaining activity at 1 µM (340 wild-type kinases [8]; 1 µM 2015, read-out: CDK6/CycD2 residual activity): 91.1%
remaining activity at 1 µM (340 wild-type kinases [8]; 1 µM 2015, read-out: CDK6/CycD3 residual activity): 86.4%
remaining activity at 0.2 µM (340 wild-type kinases [8]; CDK6/CycD1, 0.2 µM, read-out: residual activity): 97.6%
remaining activity at 1 µM (340 wild-type kinases [8]; CDK6/CycD1, 1 µM, read-out: residual activity): 93.4%
remaining activity at 0.2 µM (340 wild-type kinases [8]; CDK6/CycD2, 0.2 µM, read-out: residual activity): 88.8%
remaining activity at 1 µM (340 wild-type kinases [8]; CDK6/CycD2, 1 µM, read-out: residual activity): 91.1%
remaining activity at 0.2 µM (340 wild-type kinases [8]; CDK6/CycD3, 0.2 µM, read-out: residual activity): 93.3%
remaining activity at 1 µM (340 wild-type kinases [8]; CDK6/CycD3, 1 µM, read-out: residual activity): 86.4%
remaining activity at 0.2 µM (340 wild-type kinases [9]; 0.2 µM 2015, read-out: ALK residual activity): 95.3%
remaining activity at 1 µM (340 wild-type kinases [9]; 1 µM 2015, read-out: ALK residual activity): 86.8%
remaining activity at 0.2 µM (340 wild-type kinases [9]; ALK, 0.2 µM, read-out: residual activity): 95.3%
remaining activity at 1 µM (340 wild-type kinases [9]; ALK, 1 µM, read-out: residual activity): 86.8%
remaining activity at 0.2 µM (340 wild-type kinases [10]; 0.2 µM 2015, read-out: CK1gamma1 residual activity): 115%
remaining activity at 1 µM (340 wild-type kinases [10]; 1 µM 2015, read-out: CK1gamma1 residual activity): 107%
remaining activity at 0.2 µM (340 wild-type kinases [10]; CK1gamma1, 0.2 µM, read-out: residual activity): 115%
remaining activity at 1 µM (340 wild-type kinases [10]; CK1gamma1, 1 µM, read-out: residual activity): 107%
remaining activity at 0.2 µM (340 wild-type kinases [11]; 0.2 µM 2015, read-out: WEE1 residual activity): 91.7%
remaining activity at 1 µM (340 wild-type kinases [11]; 1 µM 2015, read-out: WEE1 residual activity): 83.3%
remaining activity at 0.2 µM (340 wild-type kinases [11]; WEE1, 0.2 µM, read-out: residual activity): 91.7%
remaining activity at 1 µM (340 wild-type kinases [11]; WEE1, 1 µM, read-out: residual activity): 83.3%
remaining activity at 0.2 µM (340 wild-type kinases [12]; 0.2 µM 2015, read-out: MKK4 residual activity): 81.9%
remaining activity at 1 µM (340 wild-type kinases [12]; 1 µM 2015, read-out: MKK4 residual activity): 91.3%
remaining activity at 0.2 µM (340 wild-type kinases [12]; MKK4, 0.2 µM, read-out: residual activity): 81.9%
remaining activity at 1 µM (340 wild-type kinases [12]; MKK4, 1 µM, read-out: residual activity): 91.3%
remaining activity at 0.2 µM (340 wild-type kinases [13]; 0.2 µM 2015, read-out: HRI residual activity): 75%
remaining activity at 1 µM (340 wild-type kinases [13]; 1 µM 2015, read-out: HRI residual activity): 93.7%
remaining activity at 0.2 µM (340 wild-type kinases [13]; HRI, 0.2 µM, read-out: residual activity): 75%
remaining activity at 1 µM (340 wild-type kinases [13]; HRI, 1 µM, read-out: residual activity): 93.7%
remaining activity at 0.2 µM (340 wild-type kinases [14]; 0.2 µM 2015, read-out: WNK2 residual activity): 107%
remaining activity at 1 µM (340 wild-type kinases [14]; 1 µM 2015, read-out: WNK2 residual activity): 111%
remaining activity at 0.2 µM (340 wild-type kinases [14]; WNK2, 0.2 µM, read-out: residual activity): 107%
remaining activity at 1 µM (340 wild-type kinases [14]; WNK2, 1 µM, read-out: residual activity): 111%
remaining activity at 0.2 µM (340 wild-type kinases [15]; 0.2 µM 2015, read-out: S6K residual activity): 94.9%
remaining activity at 1 µM (340 wild-type kinases [15]; 1 µM 2015, read-out: S6K residual activity): 95.1%
remaining activity at 0.2 µM (340 wild-type kinases [15]; S6K, 0.2 µM, read-out: residual activity): 94.9%
remaining activity at 1 µM (340 wild-type kinases [15]; S6K, 1 µM, read-out: residual activity): 95.1%
